This is an account of results in patent US9023789B2, “Amylin analogs and pharmaceutical compositions thereof” (Novo Nordisk A/S, priority 2012, dated 2015).

By IC50 is commonly meant the concentration that gives 50% inhibition. As usually defined, the half-life is how long it takes for the measured level to halve. Read a high half-life as slow loss.

Series [1] concerns the target T1, human calcitonin receptor (Homo sapiens, UniProt P30988).
T1 construct: expressed in transfected cells
T1 sequence (P30988 25-474): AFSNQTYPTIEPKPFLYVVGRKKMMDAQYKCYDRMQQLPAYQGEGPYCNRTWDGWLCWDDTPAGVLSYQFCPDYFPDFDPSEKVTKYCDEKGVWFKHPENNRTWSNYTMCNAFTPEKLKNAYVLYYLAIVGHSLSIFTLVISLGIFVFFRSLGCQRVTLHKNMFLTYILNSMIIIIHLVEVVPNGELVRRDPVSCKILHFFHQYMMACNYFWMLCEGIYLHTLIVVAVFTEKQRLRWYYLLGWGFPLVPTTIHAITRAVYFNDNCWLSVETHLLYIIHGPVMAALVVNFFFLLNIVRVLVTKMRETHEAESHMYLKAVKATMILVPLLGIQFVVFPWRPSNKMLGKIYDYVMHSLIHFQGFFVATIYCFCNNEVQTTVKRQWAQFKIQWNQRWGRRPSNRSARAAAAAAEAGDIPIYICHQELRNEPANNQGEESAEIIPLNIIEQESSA
Nature of the series: ASSAY (VII) binding to the human calcitonin receptor (SPA, 125I-Calcitonin).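 Note: cell membranes (35 ng/µL) combined with SPA beads in 40 µL of pH 7.4 Hepes buffer, 384-well format, signal counted on a TopCounter instrument.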 The note with it: read-out: hCTR bind IC50.
Experimental: Membranes were prepared in the following way; the cells were rinsed with PBS and incubated with Versene for approximately 5 min before harvesting. The cells were flushed with PBS and the cell-suspension was centrifuged for 5 min at 1000 rpm. […] The resulting pellet was resuspended in buffer 2 and protein concentration was measured (BCA protein Assay, Pierce). The homogenate was kept cold during the whole procedure. The membranes were kept at −80° C. until use. Assay was performed in a 384 well Optiplate (PerkinElmer) in a total volume of 40 ul. Membranes were mixed with SPA beads. Final concentration of membranes 35 ng/μL final and Final concentration of SPA beads was 0.05 mg/well. Test-compounds were dissolved in DMSO and further diluted in assay buffer (50 mM Hepes, pH 7.4, 1 mM CaCl2, 5 mM MgCl2, 0.1% OA and 0.02% Tween20). […] Samples were analyzed on TopCounter™ (Packard).

Series [2] can be described thus: ASSAY (X) pK, determination of T½ in rat. The class given is in vivo. The settings on record: male, Sprague Dawley, plasma, iv, 20 nmol/kg.
The next series concerns Male Sprague-Dawley rats. Nature of the series: ASSAY (XI) single subcutaneous administration, food intake monitored for 48 hours in rats. The class given is in vivo, rat. The note with it: single s.c., compared to vehicle. The source says:
Assay (XI)—Effect from Single Subcutaneous Administration of Analogue on Plasma Calcium in Rats
Male Sprague-Dawley rats (Taconic Europe, ˜250 g at test date) were acclimatized to reversed day light cycle (lights on from 10 PM to 10 AM) and single housing in online food intake monitoring system (Ellegaard MBRose, Denmark) prior to study start. […] Data are illustrated in graphs as mean±SEM.

A further series deals with Male Wistar rats. Nature of the series: ASSAY (XII) effect from single subcutaneous administration on plasma calcium in rats. The format is in vivo, rat. The settings on record: single s.c., 0-12 h, compared to vehicle. The procedure:
Assay (XII)—Effect from Single Subcutaneous Administration of Analogue on Plasma Calcium in Rats
Male Wistar rats (Taconic Europe, ˜250 g at test date) were acclimatized to handling prior to the study. Rats were divided in groups of five and subcutaneously dosed with test compound at time=0. At time T=−15 min; 1 h, 2 h, 4 h, 7 h, 12 h, and 24 h a blood sample was obtained and heparin stabilized plasma was analysed for total calcium (Cobas, Hitachi). Data are illustrated in graphs as mean±SEM.

Numbered stars: 1 amine (or outer) side, 2 acyl side, 3 side chain; on linkers, the order of the positions; unused ones are H or OH. Bridge positions count the residues as written; N and C are the ends. Side chains are listed from the residue outwards. Peptide text beside a SMILES is read from it. * marks the point of attachment. C20 diacid = O=C(O)CCCCCCCCCCCCCCCCCCC(=O)*; γGlu = O=C(O)[C@H](CCC(=O)[*:2])N[*:1]

On to `CC[C@H](C)[C@H](NC(=O)[C@H](C)NC(=O)CNC(=O)[C@H](Cc1ccccc1)NC(=O)[C@H](CC(N)=O)NC(=O)[C@@H]1CCCN1C(=O)[C@H](CO)NC(=O)[C@H](CO)NC(=O)[C@H](Cc1c[nH]cn1)NC(=O)[C@H](CCCNC(=N)N)NC(=O)[C@H](CC(C)C)NC(=O)[C@H](Cc1ccccc1)NC(=O)[C@H](CCCNC(=N)N)NC(=O)[C@H](C)NC(=O)[C@H](CC(C)C)NC(=O)[C@H](CCCNC(=N)N)NC(=O)[C@H](CCC(N)=O)NC(=O)[C@@H](NC(=O)[C@H](C)NC(=O)[C@@H]1CSSC[C@H](NC(=O)[C@@H](N)CCCCNC(=O)CC[C@H](NC(=O)CCCCCCCCCCCCCCCCCCC(=O)O)C(=O)O)C(=O)N[C@@H](CC(N)=O)C(=O)N[C@@H]([C@@H](C)O)C(=O)N[C@@H](C)C(=O)N[C@@H]([C@@H](C)O)C(=O)N1)[C@@H](C)O)C(=O)N1CCC[C@H]1C(=O)N[C@@H](CO)C(=O)N[C@@H](CO)C(=O)N[C@H](C(=O)N[C@@H](CC(N)=O)C(=O)N[C@H](C(=O)NCC(=O)N1CCC[C@H]1C(=O)N[C@@H](CC(N)=O)C(=O)N[C@H](C(=O)N[C@@H](Cc1ccc(O)cc1)C(N)=O)[C@@H](C)O)C(C)C)[C@@H](C)O` [Example 65] (H-K([γGlu-C20 diacid])CNTATCATQRLARFLRHSSPNFGAIPSSTNVGPNTY-NH2; disulfide 2-7 (inferred); N-terminus assumed), for which the IC50 in series [1] is 53.5 nM. Besides, the half-life in series [2] is 3 h.

Turning to `CC[C@H](C)[C@H](NC(=O)[C@H](C)NC(=O)CNC(=O)[C@H](Cc1ccccc1)NC(=O)[C@H](CC(N)=O)NC(=O)[C@@H]1CCCN1C(=O)[C@H](CO)NC(=O)[C@H](CO)NC(=O)[C@H](Cc1c[nH]cn1)NC(=O)[C@H](CCCNC(=N)N)NC(=O)[C@H](CC(C)C)NC(=O)[C@H](Cc1ccccc1)NC(=O)[C@H](Cc1c[nH]cn1)NC(=O)[C@H](C)NC(=O)[C@H](CC(C)C)NC(=O)[C@H](CCCNC(=N)N)NC(=O)[C@H](CCC(N)=O)NC(=O)[C@@H](NC(=O)[C@H](C)NC(=O)[C@@H]1CSSC[C@H](NC(=O)[C@@H](N)CCCCNC(=O)CC[C@H](NC(=O)CCCCCCCCCCCCCCCCCCC(=O)O)C(=O)O)C(=O)N[C@@H](CC(N)=O)C(=O)N[C@@H]([C@@H](C)O)C(=O)N[C@@H](C)C(=O)N[C@@H]([C@@H](C)O)C(=O)N1)[C@@H](C)O)C(=O)N1CCC[C@H]1C(=O)N[C@@H](CO)C(=O)N[C@@H](CO)C(=O)N[C@H](C(=O)N[C@@H](CC(N)=O)C(=O)N[C@H](C(=O)NCC(=O)N1CCC[C@H]1C(=O)N[C@@H](CC(N)=O)C(=O)N[C@H](C(=O)N[C@@H](Cc1ccc(O)cc1)C(N)=O)[C@@H](C)O)C(C)C)[C@@H](C)O` [Example 67] (H-K([γGlu-C20 diacid])CNTATCATQRLAHFLRHSSPNFGAIPSSTNVGPNTY-NH2; disulfide 2-7 (inferred); N-terminus assumed), the half-life in series [2] is 7 h.

`CC[C@H](C)[C@H](NC(=O)[C@H](C)NC(=O)CNC(=O)[C@H](Cc1ccccc1)NC(=O)[C@H](CC(N)=O)NC(=O)[C@@H]1CCCN1C(=O)[C@H](CO)NC(=O)[C@H](CO)NC(=O)[C@H](Cc1c[nH]cn1)NC(=O)[C@H](CCCNC(=N)N)NC(=O)[C@H](CC(C)C)NC(=O)[C@H](Cc1ccccc1)NC(=O)[C@H](CCC(=O)O)NC(=O)[C@H](C)NC(=O)[C@H](CC(C)C)NC(=O)[C@H](CCCNC(=N)N)NC(=O)[C@H](CCC(N)=O)NC(=O)[C@@H](NC(=O)[C@H](C)NC(=O)[C@@H]1CSSC[C@H](NC(=O)[C@@H](N)CCCCNC(=O)CC[C@H](NC(=O)CCCCCCCCCCCCCCCCCCC(=O)O)C(=O)O)C(=O)N[C@@H](CC(N)=O)C(=O)N[C@@H]([C@@H](C)O)C(=O)N[C@@H](C)C(=O)N[C@@H]([C@@H](C)O)C(=O)N1)[C@@H](C)O)C(=O)N1CCC[C@H]1C(=O)N[C@@H](CO)C(=O)N[C@@H](CO)C(=O)N[C@H](C(=O)N[C@@H](CC(N)=O)C(=O)N[C@H](C(=O)NCC(=O)N1CCC[C@H]1C(=O)N[C@@H](Cc1c[nH]cn1)C(=O)N[C@H](C(=O)N[C@@H](Cc1ccc(O)cc1)C(N)=O)[C@@H](C)O)C(C)C)[C@@H](C)O` [Example 118] (H-K([γGlu-C20 diacid])CNTATCATQRLAEFLRHSSPNFGAIPSSTNVGPHTY-NH2; disulfide 2-7): in the series with Male Sprague-Dawley rats (3 nmol/kg), the “Food intake red (%) 0-24 h” value worked out at 43% and the “Food intake red (%) 24-48 h” value was determined as 1%. In the series with Male Sprague-Dawley rats (30 nmol/kg), the “Food intake red (%) 0-24 h” value stood at 77% and the “Food intake red (%) 24-48 h” value turned out to be 30%. The “Plasma calcium red (%) 0-12 h (maximal)” value in the series with Male Wistar rats (30 nmol/kg) was found to be 26%.

Consider `CC[C@H](C)[C@H](NC(=O)[C@H](C)NC(=O)CNC(=O)[C@H](Cc1ccccc1)NC(=O)[C@H](CC(N)=O)NC(=O)[C@@H]1CCCN1C(=O)[C@H](CO)NC(=O)[C@H](CO)NC(=O)[C@H](Cc1c[nH]cn1)NC(=O)[C@H](CCCNC(=N)N)NC(=O)[C@H](CC(C)C)NC(=O)[C@H](Cc1ccccc1)NC(=O)[C@H](CCC(=O)O)NC(=O)[C@H](C)NC(=O)[C@H](CC(C)C)NC(=O)[C@H](CCCNC(=N)N)NC(=O)[C@H](CCC(N)=O)NC(=O)[C@@H](NC(=O)[C@H](C)NC(=O)[C@@H]1CSSC[C@H](NC(=O)[C@@H](N)CCCCNC(=O)CC[C@H](NC(=O)CC[C@H](NC(=O)CCCCCCCCCCCCCCCCCCC(=O)O)C(=O)O)C(=O)O)C(=O)N[C@@H](CC(N)=O)C(=O)N[C@@H]([C@@H](C)O)C(=O)N[C@@H](C)C(=O)N[C@@H]([C@@H](C)O)C(=O)N1)[C@@H](C)O)C(=O)N1CCC[C@H]1C(=O)N[C@@H](CO)C(=O)N[C@@H](CO)C(=O)N[C@H](C(=O)N[C@@H](CC(N)=O)C(=O)N[C@H](C(=O)NCC(=O)N1CCC[C@H]1C(=O)N[C@@H](Cc1c[nH]cn1)C(=O)N[C@H](C(=O)N[C@@H](Cc1ccc(O)cc1)C(N)=O)[C@@H](C)O)C(C)C)[C@@H](C)O` [Example 124] (H-K([γGlu-γGlu-C20 diacid])CNTATCATQRLAEFLRHSSPNFGAIPSSTNVGPHTY-NH2; disulfide 2-7 (inferred)), for which, in the series on Male Sprague-Dawley rats (30 nmol/kg), the “Food intake red (%) 0-24 h” value is 73% and the “Food intake red (%) 24-48 h” value is listed as 38%. Also, the “Plasma calcium red (%) 0-12 h (maximal)” value in the series with Male Wistar rats (10 nmol/kg) stood at 3%. Besides, in the series on Male Wistar rats (30 nmol/kg), the “Plasma calcium red (%) 0-12 h (maximal)” value is reported as 11%.
